Legend:
Assay type in all cases: cell-based
[1] = molecular target: T1, mNav1.6 (Mus musculus, UniProt Q9WTU3); assay: automated whole-cell voltage clamp (Qube-384)
T1 construct: gene Scn8a; full-length mouse alpha-subunit in HEK-293 cells with human beta1; with Sodium channel regulatory subunit beta-1 (human)

[2] = molecular target: T2, NaChBac (Halalkalibacterium halodurans, UniProt Q9KCR8); assay: whole-cell voltage clamp
T2 construct: gene BH1501; homotetrameric bacterial channel expressed in HEK-293 cells (construct not described)
T2 sequence (Q9KCR8 1-274): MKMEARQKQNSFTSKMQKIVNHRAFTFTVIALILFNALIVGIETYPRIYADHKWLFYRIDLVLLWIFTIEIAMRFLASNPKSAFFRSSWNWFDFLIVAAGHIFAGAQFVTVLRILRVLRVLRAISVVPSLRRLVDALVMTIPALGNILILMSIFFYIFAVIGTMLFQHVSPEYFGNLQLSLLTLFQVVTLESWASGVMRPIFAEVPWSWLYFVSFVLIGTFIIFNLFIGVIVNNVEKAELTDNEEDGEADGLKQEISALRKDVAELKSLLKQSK

[3] = molecular target: T3, hNav1.6 (Homo sapiens, UniProt Q9UQD0); assay: automated whole-cell voltage clamp
T3 construct: gene SCN8A; full-length alpha-subunit in HEK-293 cells with human beta1; with Sodium channel regulatory subunit beta-1

[4] = molecular target: T4, hNav1.1 (Homo sapiens, UniProt P35498); assay: automated whole-cell voltage clamp
T4 construct: gene SCN1A; full-length alpha-subunit in HEK-293 cells with human beta1; with Sodium channel regulatory subunit beta-1

[5] = molecular target: T5, hNav1.5 (Homo sapiens, UniProt Q14524); assay: automated whole-cell voltage clamp (Qube-384)
T5 construct: gene SCN5A; full-length alpha-subunit in HEK-293 cells with human beta1; with Sodium channel regulatory subunit beta-1

[6] = molecular target: T6, hNav1.3 (Homo sapiens, UniProt Q9NY46); assay: automated whole-cell voltage clamp (Qube-384)
T6 construct: gene SCN3A; full-length alpha-subunit in HEK-293 cells with human beta1; with Sodium channel regulatory subunit beta-1

[7] = molecular target: T7, hNav1.1 (Homo sapiens, UniProt P35498, F1774A); assay: automated whole-cell voltage clamp
T7 construct: gene SCN1A; full-length alpha-subunit in HEK-293 cells with human beta1; with Sodium channel regulatory subunit beta-1

[8] = molecular target: T8, hNav1.2 (Homo sapiens, UniProt Q99250); assay: manual whole-cell patch clamp
T8 construct: gene SCN2A; full-length alpha-subunit in HEK-293 cells with human beta1; with Sodium channel regulatory subunit beta-1

[9] = molecular target: T9, hNav1.4 (Homo sapiens, UniProt P35499); assay: automated whole-cell voltage clamp (Qube-384)
T9 construct: gene SCN4A; full-length alpha-subunit in HEK-293 cells with human beta1; with Sodium channel regulatory subunit beta-1

[10] = molecular target: T10, hNav1.6 (Homo sapiens, UniProt Q9UQD0, N1768D); assay: automated whole-cell voltage clamp
T10 construct: gene SCN8A; full-length alpha-subunit in HEK-293 cells with human beta1; with Sodium channel regulatory subunit beta-1

C=C(C)[C@@H]1CCC(C)=C[C@H]1c1c(O)cc(CCCCC)cc1O [cannabidiol]
IC50 [1]: 2.4 ± 0.1 µM
IC50 [2]: 1.5 ± 0.2 µM
IC50 [3]: 3 ± 0.1 µM
IC50 [4]: 2.5 ± 0.2 µM
IC50 [5]: 3.8 ± 0.2 µM
IC50 [6]: 3.3 ± 0.1 µM
IC50 [7]: 4.8 ± 0.2 µM
IC50 [8]: 1.3 ± 0.1 µM
IC50 [9]: 1.9 ± 0.1 µM
IC50 [10]: 10 ± 0.7 µM

CCCCNc1ccc(C(=O)OCCN(C)C)cc1 [tetracaine]
IC50 [4]: 1.6 ± 0.1 µM
IC50 [7]: ~44.1 µM

Reference: PMC6204917, “Inhibitory effects of cannabidiol on voltage-dependent sodium currents” (The Journal of Biological Chemistry, 2018)
